The supplement of paper PMC13380429

Key:
Settings in all cases: 72 h
HepG2 [1] = assay: cell viability relative to DMSO; higher = less toxic
Vero E6 [2] = assay: as above
Caco-2 [3] = assay: as above
Calu-3 [4] = assay: as above
U2OS [5] = assay: as above
HepG2 [6] = assay: relative viability EC50 (midpoint between 100% and the lowest measured viability); higher = less toxic
Vero E6 [7] = assay: as above
Caco-2 [8] = assay: as above
Calu-3 [9] = assay: as above
U2OS [10] = assay: as above
HepG2 [11] = assay: drug sensitivity score (DSS) for viability; higher = more toxic; extreme values may be limits of the assay
Vero E6 [12] = assay: as above
Caco-2 [13] = assay: as above
Calu-3 [14] = assay: as above
U2OS [15] = assay: as above

Row | SMILES | cell viability (HepG2 [1]; 1 nM) [%] | cell viability (HepG2 [1]; 10 nM) [%] | cell viability (HepG2 [1]; 100 nM) [%] | cell viability (HepG2 [1]; 1000 nM) [%] | cell viability (HepG2 [1]; 10000 nM) [%] | cell viability (Vero E6 [2]; 1 nM) [%] | cell viability (Vero E6 [2]; 10 nM) [%] | cell viability (Vero E6 [2]; 100 nM) [%] | cell viability (Vero E6 [2]; 1000 nM) [%] | cell viability (Vero E6 [2]; 10000 nM) [%] | cell viability (Caco-2 [3]; 1 nM) [%] | cell viability (Caco-2 [3]; 10 nM) [%] | cell viability (Caco-2 [3]; 100 nM) [%] | cell viability (Caco-2 [3]; 1000 nM) [%] | cell viability (Caco-2 [3]; 10000 nM) [%] | cell viability (Calu-3 [4]; 1 nM) [%] | cell viability (Calu-3 [4]; 10 nM) [%] | cell viability (Calu-3 [4]; 100 nM) [%] | cell viability (Calu-3 [4]; 1000 nM) [%] | cell viability (Calu-3 [4]; 10000 nM) [%] | cell viability (U2OS [5]; 1 nM) [%] | cell viability (U2OS [5]; 10 nM) [%] | cell viability (U2OS [5]; 100 nM) [%] | cell viability (U2OS [5]; 1000 nM) [%] | cell viability (U2OS [5]; 10000 nM) [%] | relative viability EC50 (HepG2 [6]) [µM] | relative viability EC50 (Vero E6 [7]) [µM] | relative viability EC50 (Caco-2 [8]) [µM] | relative viability EC50 (Calu-3 [9]) [µM] | relative viability EC50 (U2OS [10]) [µM] | drug sensitivity score (HepG2 [11]) | drug sensitivity score (Vero E6 [12]) | drug sensitivity score (Caco-2 [13]) | drug sensitivity score (Calu-3 [14]) | drug sensitivity score (U2OS [15])
1 | Cc1oc(-c2ccccc2)nc1CCOc1ccc(CC2SC(=O)NC2=O)c2sccc12 (stereo not given) [edaglitazone] | 102 | 107 | 93.6 | 100 | 88.8 | 103 | 102 | 89.4 | 83.7 | 86.7 | 104 | 98.6 | 90.4 | 96.1 | 87.2 | 106 | 102 | 114 | 97.5 | 102 | 99.4 | 93 | 99.2 | 97.4 | 96.9 | > 10 | > 10 | > 10 | > 10 | > 10 | 0 | 2.6 | 0.1 | 0 | 0
2 | CCc1nc(C)ccc1O [emoxipin] | 110 | 108 | 97.4 | 99.6 | 108 | 98.1 | 102 | 97.3 | 92.7 | 93.2 | 95.1 | 99.6 | 98.1 | 98.6 | 90.9 | 105 | 111 | 104 | 96.8 | 105 | 102 | 101 | 106 | 97 | 103 | > 10 | > 10 | > 10 | > 10 | > 10 | 0 | 0 | 0 | 0 | 0
3 | CCOC(=O)CCC(=O)O[C@H]1[C@H](O[C@@H]2[C@@H](C)[C@H](O[C@H]3C[C@@](C)(OC)[C@@H](O)[C@H](C)O3)[C@@H](C)C(=O)O[C@H](CC)[C@@](C)(O)[C@H](O)[C@@H](C)C(=O)[C@H](C)C[C@@]2(C)O)O[C@H](C)C[C@@H]1N(C)C [erythromycin-ethylsuccinate] | 97.8 | 107 | 101 | 87.5 | 101 | 112 | 94.8 | 103 | 100 | 104 | 87.7 | 114 | 85.5 | 100 | 99.5 | 101 | 98.5 | 100 | 101 | 96.3 | 102 | 103 | 96.8 | 106 | 100 | > 10 | > 10 | > 10 | > 10 | > 10 | 0 | 0 | 0 | 0 | 0
4 | O=C(CN1CCNCC1)NC1CCCCC1 [esaprazole] | 104 | 99.5 | 100 | 102 | 90.1 | 103 | 107 | 99.1 | 107 | 98.5 | 105 | 92.2 | 105 | 98.5 | 98.6 | 98.3 | 98 | 101 | 104 | 97.1 | 99 | 100 | 102 | 100 | 108 | > 10 | > 10 | > 10 | > 10 | > 10 | 0 | 0 | 0 | 0 | 0
5 | C[C@]12CC[C@@H]3c4ccc(OS(=O)(=O)O)cc4CC[C@H]3[C@@H]1CCC2=O [estropipate] | 111 | 110 | 103 | 103 | 97.4 | 99.5 | 95.2 | 102 | 84.8 | 101 | 102 | 96.7 | 112 | 109 | 93.4 | 99.1 | 99.1 | 99.3 | 111 | 103 | 93.4 | 95.6 | 95 | 98 | 108 | > 10 | > 10 | > 10 | > 10 | > 10 | 0 | 0 | 0 | 0 | 0
6 | Cc1ccc(-c2ncc(Cl)cc2-c2ccc(S(C)(=O)=O)cc2)cn1 [etoricoxib] | 101 | 90.5 | 99.5 | 104 | 98.6 | 96.4 | 101 | 96.5 | 99.2 | 94 | 95.3 | 108 | 92.5 | 99.9 | 104 | 94.7 | 99 | 90 | 104 | 101 | 98.1 | 103 | 97.2 | 98.5 | 94.2 | > 10 | > 10 | > 10 | > 10 | > 10 | 0 | 0 | 0 | 0 | 0
